Results reported in patent publication US6407097B1, “Methoximinomethyloxathiazines” (Bayer Aktiengesellschaft, priority 1998, dated 2002).

System: not listed separately
Test: logP by HPLC (EEC directive 79/831 Annex V. A8, gradient method)
Format: physicochemical
Details: starting materials/intermediates, read-out: HPLC: log P

| SMILES | chromatographic logP |
| --- | --- |
| CON=C1C(=NOCCSC(C)=O)Oc2ccccc21 (single isomer, unassigned) [VI-1 Isomer A, S-[2-(3-methoxyimino-3H-benzofuran-2-ylideneaminooxy)-ethyl]thioacetate] | 3.01 |
| CON=C1C(=NOCCSC(C)=O)Oc2ccccc21 (single isomer, unassigned) [VI-1 Isomer B, S-[2-(3-methoxyimino-3H-benzofuran-2-ylideneaminooxy)-ethyl]thioacetate] | 3.18 |
| CON=C1C(=NOCCBr)Oc2ccccc21 (single isomer, unassigned) [VII-1 Isomer A, benzofuran-2,3-dione 2-[O-(2-bromoethyl)-oxime] 3-(O-methyloxime)] | 3.08 |
| CON=C1C(=NOCCBr)Oc2ccccc21 (single isomer, unassigned) [VII-1 Isomer B, benzofuran-2,3-dione 2-[O-(2-bromoethyl)-oxime] 3-(O-methyloxime)] | 3.23 |

Other lines, results leading:

| chromatographic logP | SMILES |
| --- | --- |
| 1.75 | CON=C(C1=NOCCS1)c1ccccc1O [II-1, (5,6-dihydro-[1,4,2]oxathiazin-3-yl)-(2-hydroxyphenyl)-methanone O-methyloxime] |
| 2.8 | CON=C(C1=NOCCS1)c1ccccc1Oc1ncnc(F)c1F [IV-1, [2-(5,6-difluoro-pyrimidine-4-yloxy)-phenyl]-(5,6-dihydro-[1,4,2]oxathiazin-3-yl)-methanone O-methyloxime] |

System: Sphaerotheca fuliginea
Test: Sphaerotheca test (cucumber)/protective
Format: in vivo
Details: protective, application rate 100 g/ha, evaluation 10 days after inoculation
Protocol: Sphaerotheca test (cucumber)/protective Solvent: 47 parts by weight of acetone Emulsifier: 3 parts by weight of alkylaryl polyglycol ether To produce a suitable preparation of active compound, 1 part by weight of active compound is mixed with the stated amounts of solvent and emulsifier, and the concentrate is diluted with water to the desired concentration. To test for protective activity, young plants are sprayed with the preparation of active compound at the stated application rate. After the spray coating has dried on, the plants are inoculated with an aqueous spore suspension of Sphaerotheca fuliginea. The plants are then placed in a greenhouse at approximately 23° C. and a relative atmospheric humidity of approximately 70%. Evaluation is carried out 10 days after the inoculation. 0% means an efficacy which corresponds to that of the control, whereas an efficacy of 100% means that no infection is observed.

| SMILES | efficacy |
| --- | --- |
| CON=C(C1=NOCCS1)c1ccccc1Oc1ncnc(Oc2ccccc2)c1F [Example 1, (5,6-dihydro-[1,4,2]-oxathiazin-3-yl)-2-[(5-fluoro-6-phenoxy-pyrimidine-4-yloxy)-phenyl]-methanone O-methyloxime] | ≥ 90% |
